Assay results taken from publication PMC5390258, “CMD-05, a novel promising clinical anti-diabetic drug candidate, in vivo and vitro studies” (Scientific Reports, 2017).

What was measured:
[1] = test system: model rats (HFD/low-dose STZ, T2DM); experiment: Oral glucose tolerance test (OGTT) in HFD/STZ T2DM model rats; format: in vivo, rat; details: 3 mg/kg oral, model rats
Method: (§1) To establish model of T2DM, male rats (80–100 g, 9-week-old)[49] were fed high fat diet (HFD) (20% sugar, 10% lard, 10% egg yolk and 60% basal feed) after a week of normal diet. After 4 weeks, rats were injected once with low-dose streptozotocin (Solarbio, China) (STZ, 30 mg/kg i.p) to induce partial insulin deficiency, and then continuously fed HFD for 4 weeks after injection of STZ. Then the model rats were oral administrated drugs for 30 days. The body weights were recorded once a week.
On the 1st day, 19th days and 29th days of treatment, oral glucose tolerance tests for model rats were carried out. […] The blood glucose levels were tested using Johnson one touch Ultra Test Strips on Johnson Performa blood glucose meter.

insulin = experiment: Plasma insulin levels in model rats (ELISA); format: in vivo, rat; details: 3 mg/kg, fasted and glucose load plasma
Method: as §1
(§2) Oral glucose load, fasted and random blood samples were collected from rats on the 28th days, the 29th days and the last of the treatment of drugs, respectively. Plasma levels of insulin and GLP-1 were measured by ELISA kits (YuanYe, China) according to the manufacturer’s recommendation. The levels of HbA1c, Triglycerides (TG), total cholesterol (TC) and low density lipoprotein cholesterol (LDL-C) in blood samples were measured by commercial assay kits (JianCheng, Nanjing, China) according to the manufacturer’s directions.

HbA1c = HbA1c level in blood of model rats; format: in vivo, rat; details: 3 mg/kg, 30 days
Method: as §1, §2

TG, LDL-C = experiment: TG and LDL-C plasma levels in model rats; format: in vivo, rat; details: 3 mg/kg
Method: as §1, §2

[2] = Body weight of model rats; format: in vivo, rat; details: 30 days treatment
Method: as §1

pancreatic islets = experiment: Morphologic observation on islet of model rats (HE, immunofluorescence, TEM); format: in vivo, rat
Method: HE staining on paraffin section was performed as described in reports. In brief, paraffin section were rinsed with PBS, fixed with 4% paraformaldehyde (PFA) for 30 min and then washed by PBS. The pancreas tissue were stained with Hematoxylin-Eosin, afterwards, they were dehydrated in alcohols. Morphological changes of the pancreas tissue were observed under an optical microscope (Olympus, Japan) after mounted by neutral resins.
Pancreas sections (8 μm) were cut in a cryostat and collected on superfrost microscope slides. The slides were stored at −20 °C till analysis. Immunofluorescent staining was used for detection of insulin (β cells) (1:100, Anti-Insulin antibody, Abcam), glucagon (α cells) (1:200, Anti-glucagon, Abcam). Briefly, the slides were blocked in 5% normal goat serum for 1 h in a humidified chamber. Slides were exposed to primary antibodies at a dilution of […] in antibody diluting solution at 4 °C overnight, washed in PBS, and exposed to appropriate secondary antibodies linked to the fluorescent probes (Goat Anti-Guinea pig IgG/FITC and Alexa Fluor 594-conjugated Goat Anti-Rabbit IgG) (Bioss and Proteintech, China) in antibody diluting solution for 1 h and DAPI (Beyotime, China) for 5 min in the dark. After washed by PBS, slides were mounted with a glycerol mounting medium. Images were collected using a fluorescent microscope (Nikon, Japan).
For transmission electron microscopy, about 1 mm^3 tissue specimens were obtained from the same pancreas region of the control and experimental groups of rats, and fixed overnight in 2% glutaraldehyde (pH7.3) in 0.1 M phosphate buffer saline at 4 °C. Images of pancreatic islets were captured from random tissue sections using a transmission electron microscope.

INS-1 cells = experiment: Proliferation of INS-1 cells (CCK-8); format: cell-based, rat; details: 24 h, CCK-8, vs DMSO
Method: The rat insulinoma cell line INS-1 (832/13) was obtained from the Department of endocrinology at 1st affiliated hospital of Chongqing medical university. Cells were cultured in RPMI 1640 (Gibco, USA) (11 mmol/l glucose, 100 units/ml penicillin, […] streptomycin, 10 mmol/l HEPES pH 7.4) supplemented with 10% FBS (Gibco, USA), 2 mmol/l L-glutamine, 1 mmol/l pyruvate, and 50 μmol/l β-mercaptoethanol. […] 10 μl of CCK-8 was then added and incubated at 37 °C and 5% CO2 for 1.5 h and […] (OD) was read at 460 nm with microplate reader. The OD value represents the proliferation activity.

NCI-H716 cells = experiment: GLP-1 secretion in NCI-H716 cells; format: cell-based, human; details: 10, 30, 100 μM, 2 h, compared with solvent group
Method: Human enteroendocrine NCI-H716 cells were maintained in suspension culture as described by the American Type Culture Collection guideline (ATCC). Two days before the experiments, cells were seeded into 12-well culture plates coated with Matrigel at 1 × 10^6 cells per well. Cells were incubated in RPMI 1640 containing 10% FBS at 37 °C for 48 h. […] After incubated for 2 h, GLP-1 concentrations from the supernatants were measured by ELISA kits (YuanYe, China).

**Q.** Which results are given for `N#C[C@@H]1CCCN1C(=O)CNC12CC3CC(CC(O)(C3)C1)C2` [vildagliptin, reference compound]?
**A.** percentage reduction of blood glucose levels in OGTT ([1]; 1st day): 8.9%; percentage reduction of blood glucose levels in OGTT ([1]; 19th day): 10.1%; percentage reduction of blood glucose levels in OGTT ([1]; 29th day): 17.8%; insulin levels in plasma (insulin): significantly increased; reduction of the level of HbA1c (HbA1c): 2.0%; reduction of LDL-C level (TG, LDL-C): 15.97%; reduction of TG level (TG, LDL-C): 38.79%; body weights vs model group [2]: no significant difference; distribution of β cells (insulin/glucagon double staining) (pancreatic islets; 30 days treatment): obviously improved; mass of α-cells (insulin/glucagon double staining) (pancreatic islets; 30 days treatment): mildly reduced; morphology of pancreatic islets (HE staining) (pancreatic islets; 30 days treatment): prevent islet from damage; secretory granules in β cells (transmission electron microscopy) (pancreatic islets; compared with the model): obviously increased; cells viabilities (proliferation) of INS-1 cells (INS-1 cells): increased; GLP-1 levels (secretion) (NCI-H716 cells): increased slightly without significance
